Our source for the inhibition, Emax and Ki values is ChEMBL document CHEMBL5131517 (ACS Med Chem Lett, 2022).

Bounds are passed on as bounds.

Experiment [1] deals with Delta-type opioid receptor (Homo sapiens) (UniProt P41143). Briefly: Inhibition of DOR receptor (unknown origin). The settings on record: concentration not given here.
Experiment [2] has as its target 5-hydroxytryptamine receptor 2B (Homo sapiens, UniProt P41595). Description: Agonist activity at human 5HT2B receptor stably expressed in Flp-In-T-REx-293 cells assessed as maximal Gq-mediated calcium flux by Fluo-4 direct dye based FLIPR Tetra assay relative to control. Format: functional, cell-based. The settings on record: filed as agonist. (In general: Calcium assays in cells follow changes in intracellular calcium, usually with a dye or a luminescent sensor.)

The target of experiment [3] is T1, Alpha-1A adrenergic receptor (Homo sapiens) (UniProt P35348).
T1 sequence (whole entry): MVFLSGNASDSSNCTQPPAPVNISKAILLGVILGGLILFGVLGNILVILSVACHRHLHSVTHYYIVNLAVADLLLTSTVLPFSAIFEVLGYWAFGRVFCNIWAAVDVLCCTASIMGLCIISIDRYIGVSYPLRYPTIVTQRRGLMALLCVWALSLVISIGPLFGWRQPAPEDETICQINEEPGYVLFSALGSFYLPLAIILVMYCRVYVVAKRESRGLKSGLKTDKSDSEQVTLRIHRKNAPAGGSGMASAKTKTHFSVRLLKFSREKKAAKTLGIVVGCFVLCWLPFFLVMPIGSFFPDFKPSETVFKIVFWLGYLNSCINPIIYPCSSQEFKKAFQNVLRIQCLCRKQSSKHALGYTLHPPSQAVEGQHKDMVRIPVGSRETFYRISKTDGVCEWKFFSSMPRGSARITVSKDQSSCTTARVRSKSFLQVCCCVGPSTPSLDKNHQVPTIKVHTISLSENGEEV
Briefly: Inhibition of alpha1A receptor (unknown origin). The settings on record: concentration not given here.

Experiment [4] has as its target D(2) dopamine receptor (Homo sapiens) (UniProt P14416). Description: Inhibition of D2 receptor (unknown origin). As to conditions: concentration not given here.
The target in experiment [5] is Sodium-dependent dopamine transporter (Homo sapiens) (UniProt Q01959). Briefly: Inhibition of DAT receptor (unknown origin). The settings on record: concentration not given here.
For experiment [6], the target named is Beta-3 adrenergic receptor (Homo sapiens) (UniProt P13945). Briefly: Inhibition of beta 3 receptor (unknown origin). As to conditions: concentration not given here.
The target of experiment [7] is T2, 5-hydroxytryptamine receptor 2C (Homo sapiens) (UniProt P28335).
T2 sequence (whole entry): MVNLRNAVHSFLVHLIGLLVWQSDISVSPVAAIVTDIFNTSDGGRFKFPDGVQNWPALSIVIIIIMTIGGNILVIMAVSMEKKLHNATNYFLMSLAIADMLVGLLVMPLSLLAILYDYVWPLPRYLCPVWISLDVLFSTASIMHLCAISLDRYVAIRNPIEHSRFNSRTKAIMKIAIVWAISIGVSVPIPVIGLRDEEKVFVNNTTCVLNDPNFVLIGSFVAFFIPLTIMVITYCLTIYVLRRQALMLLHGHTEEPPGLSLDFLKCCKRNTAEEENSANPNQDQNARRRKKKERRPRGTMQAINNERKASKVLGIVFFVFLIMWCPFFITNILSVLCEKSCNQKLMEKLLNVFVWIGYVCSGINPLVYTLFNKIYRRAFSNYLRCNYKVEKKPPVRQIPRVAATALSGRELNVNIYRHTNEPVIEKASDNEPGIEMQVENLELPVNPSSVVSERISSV
Description: Agonist activity at human 5HT2C receptor stably expressed in Flp-In-T-REx-293 cells assessed as maximal Gq-mediated calcium flux by Fluo-4 direct dye based FLIPR Tetra assay relative to control. As to conditions: filed as agonist. Format: functional, cell-based.

For experiment [8], the target named is 5-hydroxytryptamine receptor 1B (Homo sapiens, UniProt P28222). Description: Binding affinity to 5HT1B receptor (unknown origin) assessed as inhibition constant.
The target of experiment [9] is Histamine H3 receptor (Homo sapiens) (UniProt Q9Y5N1). Briefly: Inhibition of H3 receptor (unknown origin). The settings on record: concentration not given here.
The target of experiment [10] is T3, Muscarinic acetylcholine receptor M4 (Homo sapiens) (UniProt P08173).
T3 sequence (whole entry): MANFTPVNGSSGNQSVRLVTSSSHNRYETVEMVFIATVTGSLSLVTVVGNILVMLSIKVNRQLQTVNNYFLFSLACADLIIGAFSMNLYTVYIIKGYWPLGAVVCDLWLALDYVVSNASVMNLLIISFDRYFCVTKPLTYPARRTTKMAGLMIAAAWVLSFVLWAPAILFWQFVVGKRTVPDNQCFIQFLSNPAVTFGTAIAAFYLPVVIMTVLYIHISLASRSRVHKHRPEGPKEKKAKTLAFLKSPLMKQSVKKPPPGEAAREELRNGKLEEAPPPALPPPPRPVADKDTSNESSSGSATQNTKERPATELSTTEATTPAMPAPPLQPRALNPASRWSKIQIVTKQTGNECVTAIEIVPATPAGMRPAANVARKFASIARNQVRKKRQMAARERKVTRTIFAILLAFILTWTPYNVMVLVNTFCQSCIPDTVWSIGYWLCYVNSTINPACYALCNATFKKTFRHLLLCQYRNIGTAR
Briefly: Inhibition of M4 receptor (unknown origin). The settings on record: concentration not given here.

For experiment [11], the target named is T4, 5-hydroxytryptamine receptor 1A (Homo sapiens, UniProt P08908).
T4 sequence (P08908 whole entry): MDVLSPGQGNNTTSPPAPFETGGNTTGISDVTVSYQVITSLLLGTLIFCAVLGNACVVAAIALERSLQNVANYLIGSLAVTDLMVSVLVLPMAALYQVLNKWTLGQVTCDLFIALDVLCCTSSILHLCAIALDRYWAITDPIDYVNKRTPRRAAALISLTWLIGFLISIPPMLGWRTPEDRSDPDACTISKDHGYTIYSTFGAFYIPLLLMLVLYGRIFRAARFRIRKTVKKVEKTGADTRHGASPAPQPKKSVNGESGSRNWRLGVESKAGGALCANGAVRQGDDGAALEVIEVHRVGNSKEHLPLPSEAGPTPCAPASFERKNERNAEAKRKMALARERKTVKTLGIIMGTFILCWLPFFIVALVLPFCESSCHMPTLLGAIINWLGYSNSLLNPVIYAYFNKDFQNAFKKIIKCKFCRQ
Description: Binding affinity to 5HT1A receptor (unknown origin) assessed as inhibition constant.

The target in experiment [12] is T5, Muscarinic acetylcholine receptor M5 (Homo sapiens) (UniProt P08912).
T5 sequence (whole entry): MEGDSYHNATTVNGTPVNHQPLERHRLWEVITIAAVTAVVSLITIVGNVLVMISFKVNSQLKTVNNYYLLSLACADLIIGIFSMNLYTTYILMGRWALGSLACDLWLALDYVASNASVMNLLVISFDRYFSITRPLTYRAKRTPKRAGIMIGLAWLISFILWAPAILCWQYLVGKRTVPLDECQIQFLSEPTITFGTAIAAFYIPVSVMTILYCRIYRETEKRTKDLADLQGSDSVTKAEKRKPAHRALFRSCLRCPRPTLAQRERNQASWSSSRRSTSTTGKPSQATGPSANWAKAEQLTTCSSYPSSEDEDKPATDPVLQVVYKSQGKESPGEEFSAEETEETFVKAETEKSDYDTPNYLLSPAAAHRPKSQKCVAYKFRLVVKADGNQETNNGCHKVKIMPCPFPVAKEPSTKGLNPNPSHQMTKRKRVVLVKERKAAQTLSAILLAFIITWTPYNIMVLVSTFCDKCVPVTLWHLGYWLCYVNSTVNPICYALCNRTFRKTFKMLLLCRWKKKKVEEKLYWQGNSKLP
Briefly: Inhibition of M5 receptor (unknown origin). The settings on record: concentration not given here.

A further experiment concerns the target D(3) dopamine receptor (Homo sapiens, UniProt P35462). Description: Inhibition of D3 receptor (unknown origin). As to conditions: concentration not given here.

Chain of 5-hydroxytryptamine receptor 2B (P41595 whole entry): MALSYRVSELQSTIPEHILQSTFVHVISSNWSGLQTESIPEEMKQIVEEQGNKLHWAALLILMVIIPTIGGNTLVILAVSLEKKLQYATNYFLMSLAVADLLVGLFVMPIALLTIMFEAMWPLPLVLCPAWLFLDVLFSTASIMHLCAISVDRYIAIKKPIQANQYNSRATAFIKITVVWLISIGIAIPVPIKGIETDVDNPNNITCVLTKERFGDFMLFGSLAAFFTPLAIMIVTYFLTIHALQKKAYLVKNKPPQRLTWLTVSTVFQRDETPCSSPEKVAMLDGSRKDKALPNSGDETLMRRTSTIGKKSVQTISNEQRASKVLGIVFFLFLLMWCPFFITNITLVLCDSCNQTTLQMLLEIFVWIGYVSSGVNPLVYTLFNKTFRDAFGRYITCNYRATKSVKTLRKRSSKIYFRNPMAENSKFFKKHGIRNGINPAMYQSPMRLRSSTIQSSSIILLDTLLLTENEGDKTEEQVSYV
Chain of Histamine H3 receptor (Homo sapiens) (Q9Y5N1 whole entry): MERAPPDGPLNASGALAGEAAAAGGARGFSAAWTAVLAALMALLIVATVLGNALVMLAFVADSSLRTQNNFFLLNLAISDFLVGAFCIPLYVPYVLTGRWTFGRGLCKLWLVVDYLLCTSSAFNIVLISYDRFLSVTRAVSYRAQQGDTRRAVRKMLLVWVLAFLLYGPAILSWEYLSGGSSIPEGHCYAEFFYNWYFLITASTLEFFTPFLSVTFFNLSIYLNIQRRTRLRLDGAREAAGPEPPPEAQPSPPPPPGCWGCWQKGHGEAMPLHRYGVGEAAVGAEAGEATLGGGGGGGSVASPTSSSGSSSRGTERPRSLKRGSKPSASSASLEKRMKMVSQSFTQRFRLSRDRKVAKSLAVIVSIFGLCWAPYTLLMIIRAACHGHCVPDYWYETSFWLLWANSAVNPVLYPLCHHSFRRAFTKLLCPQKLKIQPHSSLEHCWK
Chain of Delta-type opioid receptor (Homo sapiens) (P41143 whole entry): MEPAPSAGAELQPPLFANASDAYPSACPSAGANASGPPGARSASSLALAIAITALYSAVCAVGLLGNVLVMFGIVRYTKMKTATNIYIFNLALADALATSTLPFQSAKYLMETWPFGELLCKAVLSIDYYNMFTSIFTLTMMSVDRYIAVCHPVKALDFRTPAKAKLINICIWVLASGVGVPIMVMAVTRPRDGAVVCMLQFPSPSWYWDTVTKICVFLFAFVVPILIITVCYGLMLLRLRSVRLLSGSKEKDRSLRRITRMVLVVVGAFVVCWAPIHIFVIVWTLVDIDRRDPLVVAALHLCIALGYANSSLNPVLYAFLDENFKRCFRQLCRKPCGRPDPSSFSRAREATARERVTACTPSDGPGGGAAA
Chain of D(3) dopamine receptor (P35462 whole entry): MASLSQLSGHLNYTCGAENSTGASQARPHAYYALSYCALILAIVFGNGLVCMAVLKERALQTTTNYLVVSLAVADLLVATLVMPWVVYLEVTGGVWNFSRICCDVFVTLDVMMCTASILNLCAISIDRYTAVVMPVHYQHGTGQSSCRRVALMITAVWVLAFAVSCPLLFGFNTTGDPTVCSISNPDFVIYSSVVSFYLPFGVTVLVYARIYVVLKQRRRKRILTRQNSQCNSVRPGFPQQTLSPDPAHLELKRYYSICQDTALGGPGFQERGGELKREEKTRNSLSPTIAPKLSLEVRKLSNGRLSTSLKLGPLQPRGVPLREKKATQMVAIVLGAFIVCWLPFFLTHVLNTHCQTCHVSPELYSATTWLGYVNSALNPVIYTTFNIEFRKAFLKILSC
Chain of Beta-3 adrenergic receptor (Homo sapiens) (P13945 whole entry, looked up): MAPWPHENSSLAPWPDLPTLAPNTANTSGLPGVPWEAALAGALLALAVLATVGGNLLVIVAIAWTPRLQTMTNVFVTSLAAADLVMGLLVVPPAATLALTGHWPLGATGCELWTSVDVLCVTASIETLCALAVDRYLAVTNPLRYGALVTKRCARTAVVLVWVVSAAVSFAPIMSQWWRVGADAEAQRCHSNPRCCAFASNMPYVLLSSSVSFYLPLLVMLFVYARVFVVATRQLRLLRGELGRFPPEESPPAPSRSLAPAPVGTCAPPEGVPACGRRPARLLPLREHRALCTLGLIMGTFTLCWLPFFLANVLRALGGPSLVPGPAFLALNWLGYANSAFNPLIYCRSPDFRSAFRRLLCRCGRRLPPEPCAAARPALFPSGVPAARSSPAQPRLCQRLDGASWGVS
Chain of D(2) dopamine receptor (Homo sapiens) (P14416 whole entry): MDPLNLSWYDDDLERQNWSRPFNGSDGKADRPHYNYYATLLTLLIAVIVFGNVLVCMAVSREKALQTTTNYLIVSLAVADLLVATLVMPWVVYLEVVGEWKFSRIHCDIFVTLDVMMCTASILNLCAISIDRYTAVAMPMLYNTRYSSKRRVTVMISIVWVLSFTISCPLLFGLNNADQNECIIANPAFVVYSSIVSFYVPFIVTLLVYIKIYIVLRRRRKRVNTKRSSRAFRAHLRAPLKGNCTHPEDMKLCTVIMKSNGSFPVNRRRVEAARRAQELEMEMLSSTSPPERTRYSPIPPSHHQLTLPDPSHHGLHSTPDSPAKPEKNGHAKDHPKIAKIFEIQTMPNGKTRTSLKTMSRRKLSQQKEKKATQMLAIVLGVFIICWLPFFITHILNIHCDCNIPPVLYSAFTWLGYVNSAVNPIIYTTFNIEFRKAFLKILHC
Chain of Sodium-dependent dopamine transporter (Homo sapiens) (Q01959 whole entry): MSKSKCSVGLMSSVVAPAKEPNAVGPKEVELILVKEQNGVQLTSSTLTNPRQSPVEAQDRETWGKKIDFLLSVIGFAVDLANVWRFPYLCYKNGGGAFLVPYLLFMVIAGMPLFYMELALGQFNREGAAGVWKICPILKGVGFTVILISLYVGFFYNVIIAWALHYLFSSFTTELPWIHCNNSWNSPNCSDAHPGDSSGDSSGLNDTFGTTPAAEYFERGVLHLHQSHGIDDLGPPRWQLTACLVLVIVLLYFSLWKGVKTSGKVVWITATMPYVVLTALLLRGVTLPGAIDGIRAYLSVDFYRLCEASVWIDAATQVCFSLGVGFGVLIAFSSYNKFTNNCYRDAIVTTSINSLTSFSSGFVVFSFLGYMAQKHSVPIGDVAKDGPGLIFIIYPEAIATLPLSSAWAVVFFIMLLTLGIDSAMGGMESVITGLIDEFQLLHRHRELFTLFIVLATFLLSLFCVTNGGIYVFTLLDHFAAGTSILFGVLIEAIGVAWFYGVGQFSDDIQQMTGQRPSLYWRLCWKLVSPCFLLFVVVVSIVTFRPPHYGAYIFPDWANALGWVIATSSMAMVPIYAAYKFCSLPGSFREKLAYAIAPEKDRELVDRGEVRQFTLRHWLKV
Chain of 5-hydroxytryptamine receptor 1B (P28222 whole entry): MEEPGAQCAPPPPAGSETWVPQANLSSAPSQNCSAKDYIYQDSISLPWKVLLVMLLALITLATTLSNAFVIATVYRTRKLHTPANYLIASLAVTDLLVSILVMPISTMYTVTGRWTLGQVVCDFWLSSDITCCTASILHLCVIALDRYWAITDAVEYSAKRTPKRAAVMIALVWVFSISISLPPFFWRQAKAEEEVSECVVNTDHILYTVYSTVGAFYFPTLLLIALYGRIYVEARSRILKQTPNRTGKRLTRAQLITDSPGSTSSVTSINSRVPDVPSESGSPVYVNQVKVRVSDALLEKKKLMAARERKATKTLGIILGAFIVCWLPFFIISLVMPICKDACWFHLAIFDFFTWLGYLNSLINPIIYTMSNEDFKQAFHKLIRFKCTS

Usually inhibition stands for how much of the control response was suppressed. A higher inhibition goes with a response far below the control. Broadly, the Emax is the greatest response seen or fitted, relative to the assay's reference. Usually Ki stands for a dissociation constant, usually derived from enzyme kinetics or from competition with a known ligand. `COc1ccc(C2NCCc3c2[nH]c2ccc(Cl)cc32)c(O)c1` (stereo not given): the inhibition in experiment [1], in experiment [3], in experiment [4], in experiment [5], in [6] and in [9] was below 50% throughout. In addition, the inhibition in [10] and in [12] was below 50% each time. In addition, the results for the Emax in [2] and in [7] were 99.4% and 97.2%, respectively. Also, the Ki in experiment [8] turned out to be 164 nM; in experiment [11], 79.9 nM.

As to `COc1cc(OC)c(C2NCCc3c2[nH]c2ccc(Cl)cc32)cc1OC` (stereo not given), the inhibition (in experiment [1]; in experiment [3]; in experiment [4]; in experiment [5]; in experiment [6]; at D(3) dopamine receptor) was below 50% throughout. For the same compound, the inhibition in experiment [9], in experiment [10] and in experiment [12] was below 50% throughout. Besides, the Emax stood at 96.7% in [2] and 97.5% in [7]. Further, the Ki came to 52.1 nM in experiment [8] and 22.4 nM in experiment [11].

For the compound `COc1ccc(C2NCCc3c2[nH]c2ccc(F)cc32)c(O)c1` (stereo not given), the inhibition (in [1]; in experiment [3]; in experiment [4]; in experiment [5]; in [6]; against D(3) dopamine receptor) was below 50% in each case. The inhibition in [9], in [10] and in experiment [12] was below 50% in each case. The Emax in experiment [2] was 102%; in [7] it was 105%. Besides, the Ki in [8] came to 70.8 nM; in experiment [11] it was 94.4 nM.

On to `COc1cc(OC)c(C2NCCc3c2[nH]c2ccc(F)cc32)cc1OC` (stereo not given), for which the inhibition (in experiment [1]; in experiment [3]; in [4]; in experiment [5]; in [6]; against D(3) dopamine receptor) was below 50% throughout. In addition, the inhibition in [9], in [10] and in experiment [12] was below 50% throughout. The figures for the Emax in experiment [2] and in [7] were 106% and 111%, respectively. The Ki in experiment [11] is 1370 nM.
